In one data set the test system is E. coli TOP10. Kind of data set: microbe, parasite or virus in culture. The following applies: for MIC [µM] 25%MHB: 25% (diluted) Mueller-Hinton Broth; for MIC [µM] 25%MHB / MIC [µM] 100%MHB: 5 × 10^5 cells ml^−1, twofold dilutions, 18 h, 37 °C, no shaking, OD read-out, MIC = < 5% of OD of growth control, mean, n = 3; for MIC [µM] 100%MHB: 100% Mueller-Hinton Broth; for MIC: Escherichia coli, TOP10, read-out: MIC of ampicillin (control) against E. coli TOP10, control. The class given is cell-based, Escherichia coli. As to the method: On the same day at which MIC assays were executed, purified peptides were thawed and the concentration was determined by HPLC as described before. […] The cultures were then supplemented with 20% glycerol, aliquoted, and frozen at − 80 °C. […] Then the peptides were added by the liquid handling system in twofold dilutions using minimum of 100 µg ml^−1 as the highest concentration. MICs were determined as broth microdilution assay in 384-well flat bottom polypropylene plates (Falcon 96-Well Flat-Bottom Microplate) adapted from the protocol of Wiegand et al.[43]. The plates were sealed airtight and incubated for 18 h without shaking at 37 °C before reading the OD using a Tecan Infinite 200 PRO plate reader. […] MIC experiments were performed at least in triplicate.

The subject of another data set is human erythrocytes. Kind of data set: Hemolysis assay using chemically synthesized peptides. As to Hemolysis at 16MIC: relative to full lysis with 2.5% Triton-X100. It is filed as cell-based. As to conditions: for Hemolysis at 16MIC: peptide at 16 × MIC; for Hemolysis at 16MIC / Hemolysis at MIC: human erythrocytes 1:50 in DPBS, 1 h, 37 °C, absorbance 540 nm, relative to full lysis with […] Triton-X100, n = 4; for Hemolysis at MIC: peptide at MIC; for hemolytic activity, in words: MIC/16 to 16 × MIC. How it is done:
Two samples of human blood were obtained from a blood bank (Blutspendezentrum SRK at the University Hospital Basel). The samples were pooled and erythrocytes were isolated by repeated centrifugation at 500×g for 10 min, removal of the blood plasma and resuspending the remaining cells in an equal volume of DPBS. Following last resuspension, erythrocytes were diluted 1:50 in DPBS. […] To each well of the dilution plate, 100 μl of the red blood cells suspension was added. The plate was incubated for 1 h at 37 °C. […] The absorbance was measured at 540 nm using an Infinite M1000 PRO plate reader (Tecan) and corrected by the measurements from the untreated wells. The lysis of each peptide concentration was expressed relative to the lysis control (set as 100% lysis). […]

Data set [1] relates to Enterococcus faecalis ATCC 29212. It is filed as cell-based. As to conditions: chemically synthesized peptide, mean, n = 3. How it is done:
(§1) On the same day at which MIC assays were executed, purified peptides were thawed and the concentration was determined by HPLC as described before. E. coli TOP10 cells were grown in Mueller Hinton Broth (MHB) or diluted MHB (25% of the original strength) overnight to stationary phase. Diluted MHB has been frequently used to assay antimicrobial peptides. The cultures were then supplemented with 20% glycerol, aliquoted, and frozen at − 80 °C. […] Then the peptides were added by the liquid handling system in twofold dilutions using minimum of 100 µg ml^−1 as the highest concentration. MICs were determined as broth microdilution assay in 384-well flat bottom polypropylene plates (Falcon 96-Well Flat-Bottom Microplate) adapted from the protocol of Wiegand et al.[43]. The plates were sealed airtight and incubated for 18 h without shaking at 37 °C before reading the OD using a Tecan Infinite 200 PRO plate reader. […] MIC experiments were performed at least in triplicate.

The test system of a further data set is E. coli ATCC 25922. The class given is cell-based. As to conditions: chemically synthesized peptide, mean, n = 3. How it is done:
as §1

Data set [2] deals with Staphylococcus aureus ATCC 29213. It is filed as cell-based. As to conditions: chemically synthesized peptide, mean, n = 3. As to the method: as §1
Data set [3] concerns Klebsiella pneumonia ATCC 13883. It is filed as cell-based. As to conditions: chemically synthesized peptide, mean, n = 3. How it is done: as §1
Data set [4] has as its system Pseudomonas aeruginosa ATCC 47085. It is filed as cell-based. As to conditions: chemically synthesized peptide, mean, n = 3. As to the method:
as §1

Data set [5] can be described thus: Precipitation observed in the membrane damage assay. The class given is physicochemical. The following applies: 100% MHB, printed as higher than 4xMIC (16 µM). How it is done:
The bacterial strain suspension was furthermore supplemented with a final concentration of 1 µg ml^−1 propidium iodide just before pipetting the assay. […] The fractions of PI-positive and GFP-positive were determined with the same gate for all populations using the FlowJo V10 software (BD Biosciences). The extracellular membrane integrity assay was performed in biological duplicates analyzing at least 10,000 cells in each experiment.

In the next data set the test system is bacteria. Further details: method as in earlier work. As to conditions: ref supplement references 1-15 (Table S1); cited from earlier work.
Another data set deals with E.coli. Also noted: method as in earlier work. The following applies: ref supplement references 1-15 (Table S1); cited from earlier work.

Read-outs that look alike come from different tables or passages of the source. Ends that are not written are not given here. Some results are limits rather than exact numbers.

With `CC[C@H](C)[C@H](NC(=O)[C@H](Cc1c[nH]c2ccccc12)NC(=O)[C@H](CCCCN)NC(=O)[C@@H](NC(=O)[C@H](CC(C)C)NC(=O)[C@H](CC(=O)O)NC(=O)CNC(=O)[C@@H](NC(=O)[C@@H](NC(=O)[C@H](CO)NC(=O)[C@@H](NC(=O)[C@@H](NC(=O)[C@H](CC(=O)O)NC(=O)[C@H](C)NC(=O)[C@H](C)NC(=O)[C@@H](N)CCSC)[C@@H](C)CC)[C@@H](C)CC)[C@@H](C)O)[C@@H](C)CC)C(C)C)C(=O)N[C@H](C(=O)N[C@@H](CC(=O)O)C(=O)N[C@H](C(=O)N[C@H](C(=O)N[C@@H](CC(N)=O)C(=O)N[C@@H](CCCCN)C(=O)N[C@@H](Cc1ccccc1)C(=O)N[C@@H](CCCCN)C(=O)O)C(C)C)[C@@H](C)O)[C@@H](C)CC` [Delta lysin I 3458 NCBI], in the data set with E. coli TOP10, the “MIC [µM] 25%MHB” value is listed as greater than 60 µM and the “MIC [µM] 100%MHB” value is on record as greater than 60 µM.

On to `CC1(C)S[C@@H]2[C@H](NC(=O)[C@H](N)c3ccccc3)C(=O)N2[C@H]1C(=O)O` [ampicillin, reference compound], for which the MIC in the data set on E. coli TOP10 (25% MHB) worked out at 17 µM; in the data set with E. coli TOP10 (100% MHB), 34 µM.

For the compound “AIAKLVAKFGWPIVKKYYKQIMQFIGEGWAINKIIEWIKK [Enterocin RJ-11 3780 NCBI]”, in the data set on human erythrocytes, the “hemolysis at the MIC compared to the Triton-X100 control (toxicity towards human erythrocytes)” value is listed as greater than 5%, the “Hemolysis at 16MIC” value stood at 103.3% and the “Hemolysis at MIC” value is 22.7%. Further, in the data set with E. coli TOP10, the “MIC [µM] 25%MHB” value turned out to be 1 µM and the “MIC [µM] 100%MHB” value is recorded as 0.5 µM.

In the case of “GFKDWIKGAAKKLIKTVASSIANE [Ascaphin-6 9286 APD]”, in the data set with human erythrocytes, the “Hemolysis at 16MIC” value was determined as 1.4% and the “Hemolysis at MIC” value is 0%. Besides, in the data set with E. coli TOP10, the “MIC [µM] 25%MHB” value worked out at 1 µM and the “MIC [µM] 100%MHB” value amounted to 0.8 µM.

“GKFSGFAKILKSIAKFFKGVGKVRKGFKEASDLDKNQ [Oxyopinin 2b 9690 APD]”: in the data set with human erythrocytes, the “hemolytic activity, in words” value is “displayed hemolytic activity at higher concentrations”; the “Hemolysis at 16MIC” value was determined as 63.4%; the “Hemolysis at MIC” value is on record as 0.7%. In addition, in the data set on E. coli TOP10, the “MIC [µM] 25%MHB” value amounted to 0.5 µM and the “MIC [µM] 100%MHB” value amounted to 0.5 µM.

For “GWFKKAWRKVKHAGRRVLDTAKGVGRHYLNNWLNRYR [HFIAP-1 4545 NCBI]”, the “MIC [µm] in MHB” value in data set [1] was 5.6 µM; in the data set with E. coli ATCC 25922, 0.7 µM; in data set [2], 1.4 µM; in [3], 0.4 µM; in data set [4] it was 0.7 µM. In the data set with human erythrocytes, the “hemolytic activity, in words” value was “displayed hemolytic activity at higher concentrations”. Besides, the “Hemolysis at 16MIC” value with human erythrocytes worked out at 18.9%. Besides, the “Hemolysis at MIC” value with human erythrocytes is 4.1%. Further, the “MIC [µM] 25%MHB” value in the data set on E. coli TOP10 is 0.5 µM. Further, in the data set on E. coli TOP10, the “MIC [µM] 100%MHB” value came to 0.5 µM.

Consider “KRFKKFFKKLKKSVKKRAKKFFKKPRVIGVSIPF [BF-CATH 9639 APD]”, for which, in the data set on human erythrocytes, the “Hemolysis at 16MIC” value is 4.8% and the “Hemolysis at MIC” value was 2.1%. Also, in the data set with E. coli TOP10, the “MIC [µM] 25%MHB” value is 1 µM and the “MIC [µM] 100%MHB” value came to 1 µM.

As to “LKDKVKSMGEKLKQYIQTWKAKF [Latarcin 4a 5147 APD]”, in the data set with human erythrocytes, the “Hemolysis at 16MIC” value is 2.8% and the “Hemolysis at MIC” value turned out to be 0.2%. Besides, in the data set with E. coli TOP10, the “MIC [µM] 25%MHB” value was 5 µM and the “MIC [µM] 100%MHB” value was found to be 8 µM.

In the case of “Melittin: highly membrane damaging peptide used as a control [reference compound]”, the “concentration above which the peptide started to precipitate” value in data set [5] is given as greater than 16 µM. For the same compound, the “hemolysis at the MIC compared to the Triton-X100 control (toxicity towards human erythrocytes)” value with human erythrocytes is recorded as greater than 5%.

For the compound “Pyrrhocoricin PARENT: PARENT peptide on the APD, a ribosomal inhibitor”, the “Reported antibacterial mechanism of action of parent” value in the data set with bacteria is listed as “Translation inhibition”. Also, in the data set on E.coli, the “Previously reported activity against E.coli of parent” value is listed as “active”.

As to TALKGAAKELASTYQH [Maximin 3 5468 NCBI], in the data set on E. coli TOP10, the “MIC [µM] 25%MHB” value is greater than 60 µM and the “MIC [µM] 100%MHB” value was greater than 60 µM.

For “VDKGGYLPRPTPPRPVYR [Pyrrhocoricin 7122 NCBI]”, in the data set with human erythrocytes, the “Hemolysis at 16MIC” value is listed as 2.3% and the “Hemolysis at MIC” value is given as 1.1%. Also, in the data set on E. coli TOP10, the “MIC [µM] 25%MHB” value was found to be 8 µM and the “MIC [µM] 100%MHB” value came to 20 µM.

For the compound “VKLIQIRIWIQYVTVLQMFSMKTKQ [Meucin-25 11598 APD]”, in the data set with E. coli TOP10, the “MIC [µM] 25%MHB” value was greater than 60 µM and the “MIC [µM] 100%MHB” value is greater than 60 µM.

Regarding VSKIKKYLKYKDRI [P-10 8942 APD], in the data set with human erythrocytes, the “Hemolysis at 16MIC” value is given as 2.2% and the “Hemolysis at MIC” value came to 0.5%. In the data set with E. coli TOP10, the “MIC [µM] 25%MHB” value was determined as 13 µM and the “MIC [µM] 100%MHB” value was greater than 60 µM.
